We go through 3 molecules from patent US20080103141A1, “New compounds” (Biovitrum, priority 2006, published 2008).

The assay concerns the target T1, human GPR119 receptor (Homo sapiens, UniProt Q8TDV5).
T1 construct: expressed in transfected cells
T1 sequence (Q8TDV5 1-335): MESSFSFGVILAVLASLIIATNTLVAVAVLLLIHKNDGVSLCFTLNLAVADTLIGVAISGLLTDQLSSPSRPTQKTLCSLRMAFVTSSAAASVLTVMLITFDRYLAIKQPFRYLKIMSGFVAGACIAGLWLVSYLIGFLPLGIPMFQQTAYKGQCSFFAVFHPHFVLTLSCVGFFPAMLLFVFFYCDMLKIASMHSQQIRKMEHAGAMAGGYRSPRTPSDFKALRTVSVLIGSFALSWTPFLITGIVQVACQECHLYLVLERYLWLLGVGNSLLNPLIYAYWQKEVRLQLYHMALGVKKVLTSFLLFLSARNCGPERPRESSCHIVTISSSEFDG
Put plainly: Human GPR119 activity assay (cAMP HTRF in HEK293-hGPR119 cells). The assay is classed as cell-based. Particulars: stimulation of cAMP in HEK293 cells stably expressing human GPR119, 20 min at room temperature, read-out: Agonist potency at the human GPR119, EC50. The method, then:
Human GPR119 Activity Assay
Agonists to the human GPR119 receptor were characterized by measuring human GPR119 receptor-mediated stimulation of cyclic AMP (cAMP) in HEK 293 cells expressing the human GPR119 receptor.
Briefly, cAMP content was determined using a cAMP kit based on HTRF technology (Homogeneous Time-Resolved Fluorescence, Cisbio Cat. no. 62AM2PEC). HEK293 cells stably expressing the human GPR119 receptor (HEK293-hGPR119 cells) were cultured in DMEM (Gibco # 31966-021) supplemented with 10% Bovine Calf Serum (Hyclone # SH30072.03), and, 500 μg/mL Hygromycin B (Roche Diagnostics 843555). At 80% confluency, cells were detached using Trypsine and aliquoted at a density of 5×10^6 cells/mL in freezing medium (DMEM (Gibco # 31966-021), 20% BCS (Hyclone # SH30072.03), 10% DMSO (Sigma #D2650) and stored at −135° C. On the experimental day, HEK293-hGPR119 cells were thawn and diluted to 0.4×10^6 cells/mL in assay buffer (1×HBSS (Gibco Cat. no. 14025-049), 20 mM Hepes (Gibco Cat. no. 15630-056), 0.1% BSA, pH 7.4) and incubated with test substances for 20 min at room temperature. After addition of HTRF reagents diluted in lysis buffer, the 96- or 384-well plates were incubated 1 hour, followed by measuring the fluorescence ratio at 665 nm/620 nm. Test substances was diluted in compound buffer (1×HBSS (Gibco Cat. no. 14025-049), 20 mM Hepes (Gibco Cat. no. 15630-056), 0.1% BSA, 2 mM IBMX (Sigma-Aldrich Cat. No. 17018, pH 7.4). The potency of the agonist was quantified by determine the concentration that cause 50% activation of hGPR119 evoked increase in cAMP, EC50.

Turning to `CC(C)(C)OC(=O)N1CCC(NCc2cnc(-c3ccc(S(C)(=O)=O)cc3)nc2)CC1` [EXAMPLE B1, tert-Butyl 4-[({2-[4-(methylsulfonyl)phenyl]pyrimidin-5-yl}methyl)amino]piperidine-1-carboxylate], the EC50 is 453 nM.

Regarding `CC(C)(C)OC(=O)N1CCC(CNc2ncc(-c3ccc(S(C)(=O)=O)cc3)cn2)CC1` [EXAMPLE A22, tert-Butyl 4-[({5-[4-(methylsulfonyl)phenyl]pyrimidin-2-yl}amino)methyl]piperidine-1-carboxylate], the EC50 is 55 nM.

With `CC(C)(C)OC(=O)N1CCC(COc2ncc(-c3ccc(S(C)(=O)=O)cc3)cn2)CC1` [EXAMPLE A2, tert-Butyl 4-[({5-[4-(methylsulfonyl)phenyl]pyrimidin-2-yl}oxy)methyl]piperidine-1-carboxylate], the EC50 worked out at 14 nM.
